Results on 2 compounds are retold here after patent US20250362274A1, “SYSTEMS AND METHODS TO DETERMINE PARTITION COEFFICIENTS BETWEEN CRUDE OIL AND AN AQUEOUS PHASE” (Saudi Arabian Oil Company, priority 2024, published 2025).

Data set [1] can be described thus: Partition coefficient between crude oil and aqueous phase (microfluidic mixer, functionalized glass fiber separation tube, HPLC UV-Vis). In kind it is physicochemical. The conditions noted are these: tracer at 100 ppm, after mixing with crude oil and separation. As to the method:
In step 2700, the partition coefficient is calculated using the measurement from step 2600 and the reference points and calibration curve from step 2100. The partition coefficient of a substance “A” is defined as
where [A]org is the concentration of substance A in the organic phase, and [A]aq is the concentration of substance A in the water phase, with equal volumes of organic and aqueous phases at equilibrium. The detection system 1300 and the calibration curve from the step 2100 can provide [A]aq. [A]total can be obtained from the step 2200 and [A]org can be calculated as [A]org=[A]total−[A]aq.
A partition coefficient detection system was constructed using a teardrop microfluidic mixer (micronit), a functionalized glass fiber packed capillary tube oil/water phase separator, and a 1D HPLC UV-Vis detector (Agilent, 1290 Infinity HPLC system).
To prepare the functionalized glass fiber packed capillary tube oil/water phase separator, a hydrophobic fiber filtration material was prepared by chemically functionalizing surfaces of glass wool. […] The washed glass wool was immersed in 20 mL Piranha solution (3:1 mixture of concentrated sulfuric acid and 30% hydrogen peroxide) for 30 mins, then the treated glass wool was removed from the Piranha solution and rinsed with DI water until the pH value of the water used for rinsing was near neutral pH (pH=7±1), as monitored by a pH meter. […]

For data set [2] the following is noted: Hansch, C. et al. (1995); cited from earlier work.

In the case of `O=C(O)c1ccccc1F` [2-fluorobenzoic acid], the “partitioning behavior between crude oil and aqueous phase (FIG. 4)” value in data set [1] is “did not show partitioning behavior”.
Turning to `OCc1ccc(Cl)cc1` [4-CBA, 4-chlorobenzyl alcohol], the “partitioning behavior between crude oil and aqueous phase (FIG. 4)” value in data set [1] is “did show partitioning behavior”. In addition, the “partition coefficient (log P), value from the literature” value in data set [2] is on record as 1.96.
